PubChem BioAssay (NCI)
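Test compounds were applied to cells in 96-well plates for 48 hours at 5 doses. TGI denotes the concentration required for complete inhibition of growth.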

Legend:
Assay in all cases: NCI anticancer screen, dose series, 48 h
SNB-19 CNS = system: SNB-19 CNS
SK-MEL-5 melanoma = system: SK-MEL-5 melanoma
786-0 renal = system: 786-0 renal
MDA-MB-231 breast = system: MDA-MB-231 breast
MDA-N = system: MDA-N
MOLT-4 leukemia = system: MOLT-4 leukemia
HOP-62 NSCLC = system: HOP-62 NSCLC
OVCAR-8 ovarian = system: OVCAR-8 ovarian
SR leukemia = system: SR leukemia
SK-MEL-2 melanoma = system: SK-MEL-2 melanoma
RXF 393 renal = system: RXF 393 renal
HCC-2998 colon = system: HCC-2998 colon
CAKI-1 renal = system: CAKI-1 renal
NCI-H460 lung = system: NCI-H460 lung
SF-539 CNS = system: SF-539 CNS
DU-145 prostate = system: DU-145 prostate
HOP-92 NSCLC = system: HOP-92 NSCLC
SK-OV-3 ovarian = system: SK-OV-3 ovarian

| SMILES | TGI (SNB-19 CNS) | TGI (SK-MEL-5 melanoma) | TGI (786-0 renal) | TGI (MDA-MB-231 breast) | TGI (MDA-N) | TGI (MOLT-4 leukemia) | TGI (HOP-62 NSCLC) | TGI (OVCAR-8 ovarian) | TGI (SR leukemia) | TGI (SK-MEL-2 melanoma) | TGI (RXF 393 renal) | TGI (HCC-2998 colon) | TGI (CAKI-1 renal) | TGI (NCI-H460 lung) | TGI (SF-539 CNS) | TGI (DU-145 prostate) | TGI (HOP-92 NSCLC) | TGI (SK-OV-3 ovarian) |
| --- | --- | --- | --- | --- | --- | --- | --- | --- | --- | --- | --- | --- | --- | --- | --- | --- | --- | --- |
| CC(C)=CCC[C@@H](C)/C=C/C=C(\C)C(=O)CC[C@@H]1CC[N@+]2(C)CCCC[C@H]12 | > 100 µM | > 100 µM | > 100 µM | > 100 µM | > 100 µM | > 100 µM | > 100 µM | > 100 µM | > 100 µM | > 100 µM | > 100 µM | > 100 µM | > 100 µM | > 100 µM | > 100 µM | > 100 µM | > 100 µM | – |
| COC(=O)C1CCC(=O)N1CN(C(C)=O)c1ccccc1Cl (stereo not given) | > 100 µM | > 100 µM | > 100 µM | > 100 µM | > 100 µM | > 100 µM | > 100 µM | > 100 µM | > 100 µM | > 100 µM | > 100 µM | > 100 µM | > 100 µM | > 100 µM | > 100 µM | > 100 µM | > 100 µM | > 100 µM |
| CCc1n[nH]c(=O)n1/N=C/c1ccccc1O | > 100 µM | > 100 µM | > 100 µM | > 100 µM | > 100 µM | > 100 µM | > 100 µM | > 100 µM | > 100 µM | > 100 µM | > 100 µM | > 100 µM | – | – | > 100 µM | > 100 µM | > 100 µM | > 100 µM |
| O=c1cc(N=Nc2ccc(Br)cc2)[nH]c(=S)[nH]1 | > 100 µM | > 100 µM | 17.1 µM | 34.3 µM | > 100 µM | 63.3 µM | > 100 µM | 51.3 µM | 74.1 µM | 33.3 µM | 45.4 µM | 38.6 µM | 23 µM | > 100 µM | > 100 µM | > 100 µM | 50.5 µM | > 100 µM |
| COc1cc(OC)c2c(c1)OC(c1ccccc1)CC2=O (stereo not given) | > 10 µM | > 10 µM | > 10 µM | > 10 µM | > 10 µM | > 10 µM | > 10 µM | > 10 µM | > 10 µM | > 10 µM | > 10 µM | > 10 µM | > 10 µM | > 10 µM | > 10 µM | > 10 µM | > 10 µM | > 10 µM |
| NC(Cc1ccc(OCc2ccccc2)cn1)C(=O)O (stereo not given) | > 100 µM | > 100 µM | > 100 µM | > 100 µM | > 100 µM | > 100 µM | > 100 µM | > 100 µM | > 100 µM | – | > 100 µM | > 100 µM | > 100 µM | > 100 µM | > 100 µM | > 100 µM | – | – |
| O=c1oc2ccccc2nc1/C=C(\O)c1ccc(Cl)cc1 | > 100 µM | > 100 µM | > 100 µM | > 100 µM | > 100 µM | > 100 µM | > 100 µM | > 100 µM | > 100 µM | > 100 µM | > 100 µM | > 100 µM | > 100 µM | > 100 µM | > 100 µM | > 100 µM | – | > 100 µM |
| Cc1cc(S(=O)(=O)Nc2n[nH]c(Nc3ccc(Cl)cc3)n2)c(S)cc1Cl | > 100 µM | > 100 µM | > 100 µM | > 100 µM | > 100 µM | > 100 µM | > 100 µM | > 100 µM | > 100 µM | > 100 µM | > 100 µM | > 100 µM | > 100 µM | > 100 µM | > 100 µM | > 100 µM | > 100 µM | > 100 µM |
| C=CCn1c(-c2ccc([N+](=O)[O-])cc2)cs/c1=N\C(P(=O)(O)O)P(=O)(O)O | > 100 µM | > 100 µM | > 100 µM | > 100 µM | > 100 µM | > 100 µM | > 100 µM | > 100 µM | > 100 µM | – | > 100 µM | > 100 µM | > 100 µM | > 100 µM | > 100 µM | > 100 µM | > 100 µM | > 100 µM |
| C=CCN(c1cc(OCc2ccccc2)c2[nH]cc(C)c2c1)S(C)(=O)=O | > 100 µM | > 100 µM | > 100 µM | > 100 µM | > 100 µM | > 100 µM | > 100 µM | > 100 µM | > 100 µM | > 100 µM | 71.4 µM | > 100 µM | > 100 µM | > 100 µM | > 100 µM | > 100 µM | > 100 µM | > 100 µM |
| COC(=O)/C(C#N)=C(\Nc1ccccc1)N1CCOCC1 | > 100 µM | > 100 µM | > 100 µM | > 100 µM | > 100 µM | > 100 µM | > 100 µM | > 100 µM | > 100 µM | > 100 µM | > 100 µM | > 100 µM | > 100 µM | > 100 µM | > 100 µM | > 100 µM | > 100 µM | > 100 µM |
| COC(=O)/C=C1\C(=O)N(C(C)=O)c2ccc(Br)cc21 | 27.9 µM | 23 µM | 18 µM | 28.2 µM | 24 µM | 10 µM | 25.9 µM | 24 µM | 13.5 µM | 27.7 µM | 21.2 µM | 31.9 µM | > 47 µM | 30.4 µM | 9.65 µM | 25.5 µM | 29.5 µM | 29.1 µM |
| Cc1cn([C@@H]2C[C@@H]2CO)c(=O)[nH]c1=O | > 100 µM | > 100 µM | > 100 µM | > 100 µM | > 100 µM | > 100 µM | > 100 µM | > 100 µM | > 100 µM | > 100 µM | > 100 µM | > 100 µM | > 100 µM | > 100 µM | > 100 µM | > 100 µM | > 100 µM | – |
